From patent US10647747B2, “Cyclosporin derivatives and uses thereof” (S&T Global Inc., priority 2010, dated 2020)
Where two headings read alike, the source gives them in different places. *1 amine or outer side, *2 acyl side, *3 side chain or, on linkers, in order; H or OH if unused. Where a SMILES comes first, the peptide text is derived from it. [ ]: non-standard residue; d: D form. ξ: configuration not given here. MeBmt = C/C=C/C[C@@H](C)[C@@H](O)[C@H](NC)C(=O)O; X8 = CCN(CC)CCS[C@@H](C(=O)[*:2])N(C)[*:1]; X6 = CCN(CC)CCS[C@H](C(=O)[*:2])N(C)[*:1]; X3 = CC=CCC(C)C(O)C(C(=O)[*:2])N(C)[*:1]; X13 = CCN(CC)CCCSC(C(=O)[*:2])N(C)[*:1]; NMeIle(3ξ) = CCC(C)[C@H](NC)C(=O)O; NMeL = CN[CH](CC(C)C)C(=O)O; NMeV = CN[CH](C(=O)O)C(C)C; Abu = CC[CH](N)C(=O)O

System: HCV replicon in cell line ET (luc-ubi-neo/ET), Huh7 human hepatoma
Experiment: HCV subgenomic replicon assay, luciferase end point
Assay type: cell-based
[1] = HCV subgenomic replicon, cell line ET (luc-ubi-neo/ET) Huh7, luciferase end point, read-out: Antiviral activity EC50
[2] = Table 13, HCV replicon luciferase, read-out: Antiviral activity EC50
[3] = Hepatitis C virus, Huh-7, Table 14, HCV replicon luciferase, read-out: Antiviral activity EC50
[4] = Table 14, HCV replicon luciferase, read-out: Antiviral activity EC50
[5] = Table 16, HCV replicon luciferase, read-out: Antiviral activity EC50
[6] = Table 12, HCV replicon luciferase, read-out: Antiviral activity EC50
[7] = Hepatitis C virus, Huh-7, HCV subgenomic replicon, cell line ET (luc-ubi-neo/ET) Huh7, luciferase end point, read-out: Antiviral activity EC50

## CC=CCC(C)C(O)C1C(=O)NC(CC)C(=O)N(C)C(CSCCCN2CCCCC2)C(=O)N(C)C(CC(C)(C)OC)C(=O)NC(C(C)C)C(=O)N(C)C(CC(C)C)C(=O)NC(C)C(=O)NC(C)C(=O)N(C)C(CC(C)C)C(=O)N(C)C(CC(C)C)C(=O)N(C)C(C(C)C)C(=O)N1C (stereo not drawn)
[1]
  EC50: 60 nM

## CC=CCC(C)C(O)C1C(=O)NC(CC)C(=O)N(C)CC(=O)N(C)C(CC(C)(C)OC)C(=O)NC(C(C)C)C(=O)N(C)C(CC(C)C)C(=O)NC(C)C(=O)NC(C)C(=O)N(C)C(CC(C)C)C(=O)N(C)C(CC(C)C)C(=O)N(C)C(C(C)C)C(=O)N1C (stereo not drawn) [[(γ-Methoxy)-N-MeLeu]-4-cyclosporin]
[2]
  EC50: 180 nM

## CC=CCC(C)C(O)C1C(=O)NC(CC)C(=O)N(C)C(SCCCN(CC)CC)C(=O)N(C)C(C(C)C)C(=O)NC(C(C)C)C(=O)N(C)C(CC(C)C)C(=O)NC(C)C(=O)NC(C)C(=O)N(C)C(CC(C)C)C(=O)N(C)C(CC(C)C)C(=O)N(C)C(C(C)C)C(=O)N1C [[(S)-3-(N,N-Diethylamino)propylthio-Sar]-3-[N-MeVal]-4-cyclosporin] (cyclo([X3][Abu][X13][NMeV]V[NMeL]AA[NMeL][NMeL][NMeV]); configuration not given here)
[1]
  EC50: 70 nM

## C/C=C/C[C@@H](C)[C@@H](O)[C@H]1C(=O)N[C@@H](CC)C(=O)N(C)[C@H](CSCCN(C)C(C)C)C(=O)N(C)[C@@H](CC(C)(C)O)C(=O)N[C@@H](C(C)C)C(=O)N(C)[C@@H](CC(C)C)C(=O)N[C@@H](C)C(=O)N[C@H](C)C(=O)N(C)[C@@H](CC(C)C)C(=O)N(C)[C@@H](CC(C)C)C(=O)N(C)[C@@H](C(C)C)C(=O)N1C
[3]
  EC50: 40 nM

## C/C=C/C[C@@H](C)[C@@H](O)[C@H]1C(=O)N[C@@H](CC)C(=O)N(C)[C@H](CSCCN(C)C)C(=O)N(C)[C@@H](CC(C)C)C(=O)N[C@@H](C(C)C)C(=O)N(C)[C@@H](CC(C)C)C(=O)N[C@@H](C)C(=O)N[C@H](C)C(=O)N(C)[C@@H](CC(C)C)C(=O)N(C)[C@@H](CC(C)C)C(=O)N(C)[C@@H](C(C)C)C(=O)N1C (single isomer, unassigned; isomer b) [[(S)-(2-(N,N-Dimethylamino)ethylthio)methyl-Sar]-3-cyclosporin (isomer B)]
[1]
  EC50: 170 nM

## C/C=C/C[C@@H](C)[C@@H](O)[C@H]1C(=O)N[C@@H](CC)C(=O)N(C)[C@@H](COCCN(CC)CC)C(=O)N(C)[C@@H](CC(C)(C)O)C(=O)N[C@@H](C(C)C)C(=O)N(C)[C@@H](CC(C)C)C(=O)N[C@@H](C)C(=O)N[C@H](C)C(=O)N(C)[C@@H](CC(C)C)C(=O)N(C)[C@@H](CC(C)C)C(=O)N(C)[C@@H](C(C)C)C(=O)N1C
[4]
  EC50: 50 nM

## CC=CCC(C)C(O)C1C(=O)NC(CC)C(=O)N(C)C(CSCCN2CCOCC2)C(=O)N(C)C(CC(C)(C)OC)C(=O)NC(C(C)C)C(=O)N(C)C(CC(C)C)C(=O)NC(C)C(=O)NC(C)C(=O)N(C)C(CC(C)C)C(=O)N(C)C(CC(C)C)C(=O)N(C)C(C(C)C)C(=O)N1C (stereo not drawn)
[1]
  EC50: 110 nM

## C/C=C/C[C@@H](C)[C@@H](O)[C@H]1C(=O)N[C@@H](CC)C(=O)N(C)[C@H](CSCCCN(C)C)C(=O)N(C)[C@@H](CC(C)(C)O)C(=O)N[C@@H](C(C)C)C(=O)N(C)[C@@H](CC(C)C)C(=O)N[C@@H](C)C(=O)N[C@H](C)C(=O)N(C)[C@@H](CC(C)C)C(=O)N(C)[C@@H](CC(C)C)C(=O)N(C)[C@@H](C(C)C)C(=O)N1C
[1]
  EC50: 110 nM

## CCCCC(C)C(O)C1C(=O)NC(CC)C(=O)N(C)CC(=O)N(C)C(CC(C)(C)OC)C(=O)NC(C(C)C)C(=O)N(C)C(CC(C)C)C(=O)NC(C)C(=O)NC(C)C(=O)N(C)C(CC(C)C)C(=O)N(C)C(CC(C)C)C(=O)N(C)C(C(C)C)C(=O)N1C (stereo not drawn) [[(γ-Methoxy)-N-MeLeu]-4-dihydrocyclosporin]
[2]
  EC50: 350 nM

## C/C=C/C[C@@H](C)[C@@H](O)[C@H]1C(=O)N[C@@H](CC)C(=O)N(C)[C@H](COCCCN2CCOCC2)C(=O)N(C)[C@@H](CC(C)(C)O)C(=O)N[C@@H](C(C)C)C(=O)N(C)[C@@H](CC(C)C)C(=O)N[C@@H](C)C(=O)N[C@H](C)C(=O)N(C)[C@@H](CC(C)C)C(=O)N(C)[C@@H](CC(C)C)C(=O)N(C)[C@@H](C(C)C)C(=O)N1C [[(R)-(3-(N-Morpholino)propoxy)methyl-Sar]-3-[(γ-hydroxy)-N-MeLeu]-4-cyclosporin]
[1]
  EC50: 90 nM

## C/C=C/C[C@@H](C)[C@@H](O)[C@H]1C(=O)N[C@@H](CC)C(=O)N(C)[C@H](CSCCN(CC)CC)C(=O)N(C)[C@@H](CC(C)(C)O)C(=O)N[C@@H](C(C)C)C(=O)N(C)[C@@H](CC(C)C)C(=O)N[C@@H](C)C(=O)N[C@H](C)C(=O)N(C)[C@@H](CC(C)C)C(=O)N(C)[C@@H](CC(C)C)C(=O)N(C)[C@@H](C(C)C)C(=O)N1C (single isomer, unassigned)
[3]
  EC50: 30 nM

## CC=CCC(C)C(O)C1C(=O)NC(CC)C(=O)N(C)C(CSCCCCN(CC)CC)C(=O)N(C)C(CC(C)(C)O)C(=O)NC(C(C)C)C(=O)N(C)C(CC(C)C)C(=O)NC(C)C(=O)NC(C)C(=O)N(C)C(CC(C)C)C(=O)N(C)C(CC(C)C)C(=O)N(C)C(C(C)C)C(=O)N1C (stereo not drawn)
[5]
  EC50: 70 nM

## CC=CCC(C)C(O)C1C(=O)NC(CC)C(=O)N(C)C(CSCCCN2CCN(C(C)C)CC2)C(=O)N(C)C(CC(C)(C)O)C(=O)NC(C(C)C)C(=O)N(C)C(CC(C)C)C(=O)NC(C)C(=O)NC(C)C(=O)N(C)C(CC(C)C)C(=O)N(C)C(CC(C)C)C(=O)N(C)C(C(C)C)C(=O)N1C (stereo not drawn)
[5]
  EC50: 50 nM

## C/C=C/C[C@@H](C)[C@@H](O)[C@H]1C(=O)N[C@@H](CC)C(=O)N(C)CC(=O)N(C)[C@@H]([C@@H](C)CC)C(=O)N[C@@H](C(C)C)C(=O)N(C)[C@@H](CC(C)C)C(=O)N[C@@H](C)C(=O)N[C@H](C)C(=O)N(C)[C@@H](CC(C)C)C(=O)N(C)[C@@H](CC(C)C)C(=O)N(C)[C@@H](C(C)C)C(=O)N1C [[N-MeIle]-4-cyclosporin (SDZ-NIM-811), N-MeIle-4-Cyclosporin, reference compound]
Hepatitis C virus, Huh-7, read-out: Antiviral activity EC50, Table 12, HCV replicon luciferase
  EC50: 150 nM

## CC=CCC(C)C(O)C1C(=O)NC(CC)C(=O)N(C)C(COCCN2CCCC2)C(=O)N(C)C(CC(C)(C)O)C(=O)NC(C(C)C)C(=O)N(C)C(CC(C)C)C(=O)NC(C)C(=O)NC(C)C(=O)N(C)C(CC(C)C)C(=O)N(C)C(CC(C)C)C(=O)N(C)C(C(C)C)C(=O)N1C [[(R)-(2-(N-Pyrrolidino)ethoxy)methyl-Sar]-3-[(γ-hydroxy)-N-MeLeu]-4-cyclosporin]
[1]
  EC50: 200 nM

## C/C=C/C[C@@H](C)[C@@H](O)[C@H]1C(=O)N[C@@H](CC)C(=O)N(C)[C@H](SCCN(CC)CC)C(=O)N(C)[C@@H](C(C)CC)C(=O)N[C@@H](C(C)C)C(=O)N(C)[C@@H](CC(C)C)C(=O)N[C@@H](C)C(=O)N[C@H](C)C(=O)N(C)[C@@H](CC(C)C)C(=O)N(C)[C@@H](CC(C)C)C(=O)N(C)[C@@H](C(C)C)C(=O)N1C (stereo partly drawn) [(R)-2-(N,N-Diethylamino)ethylthio-Sar]-3-[N-MeIle]-4-cyclosporin] (cyclo(A[dA][NMeL][NMeL][NMeV][MeBmt][Abu][X6][NMeIle(3ξ)]V[NMeL]))
[6]
  EC50: 1870 nM

## CC=CCC(C)C(O)C1C(=O)NC(CC)C(=O)N(C)C(CSCCN(C)C(C)C)C(=O)N(C)C(CC(C)(C)O)C(=O)NC(C(C)C)C(=O)N(C)C(CC(C)C)C(=O)NC(C)C(=O)NC(C)C(=O)N(C)C(CC(C)C)C(=O)N(C)C(CC(C)C)C(=O)N(C)C(C(C)C)C(=O)N1C (stereo not drawn)
[1]
  EC50: 100 nM

## C/C=C/C[C@@H](C)[C@@H](O)[C@H]1C(=O)N[C@@H](CC)C(=O)N(C)[C@H](COCCN(C)C)C(=O)N(C)[C@@H](CC(C)C)C(=O)N[C@@H](C(C)C)C(=O)N(C)[C@@H](CC(C)C)C(=O)N[C@@H](C)C(=O)N[C@H](C)C(=O)N(C)[C@@H](CC(C)C)C(=O)N(C)[C@@H](CC(C)C)C(=O)N(C)[C@@H](C(C)C)C(=O)N1C [[(R)-(2-(N,N-Dimethylamino)ethoxy)methyl-Sar]-3-cyclosporin]
[7]
  EC50: 150 nM

## C/C=C/C[C@@H](C)[C@@H](O)[C@H]1C(=O)N[C@@H](CC)C(=O)N(C)[C@H](COCCCN2CCOCC2)C(=O)N(C)[C@@H](CC(C)(C)O)C(=O)N[C@@H](C(C)C)C(=O)N(C)[C@@H](CC(C)C)C(=O)N[C@@H](C)C(=O)N[C@H](C)C(=O)N(C)[C@@H](CC(C)C)C(=O)N(C)[C@@H](CC(C)C)C(=O)N(C)[C@@H](C(C)C)C(=O)N1C [[(R)-(3-(N-Morpholino)propoxy)methyl-Sar]-3-[(γ-hydroxy)-NMeLeu]-4-cyclosporin]
[4]
  EC50: 40 nM

## CC=CCC(C)C(O)C1C(=O)NC(CC)C(=O)N(C)C(SCCCN2CCOCC2)C(=O)N(C)C(CC(C)(C)OC)C(=O)NC(C(C)C)C(=O)N(C)C(CC(C)C)C(=O)NC(C)C(=O)NC(C)C(=O)N(C)C(CC(C)C)C(=O)N(C)C(CC(C)C)C(=O)N(C)C(C(C)C)C(=O)N1C [[(S)-3-(N-Morpholino)propylthio-Sar]-3-[(γ-methoxy)-N-MeLeu]-4-cyclosporin]
[2]
  EC50: 60 nM

## C/C=C/C[C@@H](C)[C@@H](O)[C@H]1C(=O)N[C@@H](CC)C(=O)N(C)[C@@H](SCCN(CC)CC)C(=O)N(C)[C@@H](C(C)C)C(=O)N[C@@H](C(C)C)C(=O)N(C)[C@@H](CC(C)C)C(=O)N[C@@H](C)C(=O)N[C@H](C)C(=O)N(C)[C@@H](CC(C)C)C(=O)N(C)[C@@H](CC(C)C)C(=O)N(C)[C@@H](C(C)C)C(=O)N1C [(S)-2-(N,N-Diethylamino)ethylthio-Sar]-3-[N-MeVal]-4-cyclosporin] (cyclo(A[dA][NMeL][NMeL][NMeV][MeBmt][Abu][X8][NMeV]V[NMeL]))
[6]
  EC50: 40 nM

## C/C=C/C[C@@H](C)[C@@H](O)[C@H]1C(=O)N[C@@H](CC)C(=O)N(C)[C@H](CSCCNC(C)C)C(=O)N(C)[C@@H](CC(C)(C)O)C(=O)N[C@@H](C(C)C)C(=O)N(C)[C@@H](CC(C)C)C(=O)N[C@@H](C)C(=O)N[C@H](C)C(=O)N(C)[C@@H](CC(C)C)C(=O)N(C)[C@@H](CC(C)C)C(=O)N(C)[C@@H](C(C)C)C(=O)N1C
[7]
  EC50: 190 nM

## C/C=C/C[C@@H](C)[C@@H](O)[C@H]1C(=O)N[C@@H](CC)C(=O)N(C)[C@H](CSCCCN2CCN(C)CC2)C(=O)N(C)[C@@H](CC(C)(C)O)C(=O)N[C@@H](C(C)C)C(=O)N(C)[C@@H](CC(C)C)C(=O)N[C@@H](C)C(=O)N[C@H](C)C(=O)N(C)[C@@H](CC(C)C)C(=O)N(C)[C@@H](CC(C)C)C(=O)N(C)[C@@H](C(C)C)C(=O)N1C
[1]
  EC50: 90 nM
[5]
  EC50: 40 nM
